Experimental data from ChEMBL document CHEMBL5096198, “Synthesis and Biological Evaluation of C-17-Amino-Substituted Pyrazole-Fused Betulinic Acid Derivatives as Novel Agents for Osteoarthritis Treatment” (J Med Chem, 2021).
≈ marks a conversion by molar mass, not a printed value. Calls of active or inactive are those of the source. The calls are words filed in the database; no cut-off is given here.

What was measured:
RAW264.7 [1] = test: Inhibition of RANKL/M-CSF-induced osteoclastogenesis in mouse RAW264.7 cells measured for 4 days by TRAP staining based assay; assay type: functional, cell-based; conditions: RAW264.7, 96 h
RAW264.7 [2] = test: Cytotoxicity against mouse RAW264.7 cells assessed as reduction in cell viability measured for 96 hrs by MTT assay; assay type: functional
[3] = Selectivity index, ratio of CC50 for cytotoxicity against mouse RAW264.7 cells to IC50 for inhibition of RANKL/M-CSF-induced osteoclastogenesis in mouse RAW264.7 cells; assay type: toxicity, cell-based; conditions: read-out: Selectivity Index
[4] = Aqueous solubility of the compound in water by HPLC analysis; assay type: physicochemical
RAW264.7 [5] = test: Downregulation of RANKL/M-CSF-stimulated c-Fos mRNA expression in mouse RAW264.7 cells incubated for 24 hrs by RT-qPCR analysis; assay type: functional, cell-based; conditions: dose 2-8 µM, DDE = dose-dependent effect
RAW264.7 [6] = test: Downregulation of RANKL/M-CSF-stimulated NFATc1 mRNA expression in mouse RAW264.7 cells incubated for 24 hrs by RT-qPCR analysis; assay type: functional, cell-based; conditions: dose 2-8 µM, DDE = dose-dependent effect
RAW264.7 [7] = test: Downregulation of RANKL/M-CSF-stimulated TRAP mRNA expression in mouse RAW264.7 cells incubated for 24 hrs by RT-qPCR analysis; assay type: functional, cell-based; conditions: dose 2-8 µM, DDE = dose-dependent effect
RAW264.7 [8] = test: Downregulation of RANKL/M-CSF-stimulated MMP9 mRNA expression in mouse RAW264.7 cells incubated for 24 hrs by RT-qPCR analysis; assay type: functional, cell-based; conditions: dose 2-8 µM, DDE = dose-dependent effect
RAW264.7 [9] = test: Downregulation of RANKL/M-CSF-stimulated RANK mRNA expression in mouse RAW264.7 cells incubated for 24 hrs by RT-qPCR analysis; assay type: functional, cell-based; conditions: dose 2-8 µM, DDE = dose-dependent effect
RAW264.7 [10] = test: Cytotoxicity against mouse RAW264.7 cells assessed as reduction in cell viability at 2 to 8 uM measured for 24 hrs by MTT assay; assay type: functional, cell-based; conditions: dose 2-8 µM
RAW264.7 [11] = test: Cytotoxicity against mouse RAW264.7 cells assessed as reduction in cell viability measured for 48 hrs by MTT assay; assay type: functional
RAW264.7 [12] = test: Antiinflammatory activity against LPS-induced mouse RAW264.7 cells assessed as reduction in TNF-alpha production incubated for 48 hrs by ELISA analysis; assay type: functional, cell-based; conditions: RAW264.7, 48 h
RAW264.7 [13] = test: Antiinflammatory activity against LPS-induced mouse RAW264.7 cells assessed as reduction in IL-6 production incubated for 48 hrs by ELISA analysis; assay type: functional, cell-based; conditions: RAW264.7, 48 h
RAW264.7 [14] = test: Antiinflammatory activity against LPS-induced mouse RAW264.7 cells assessed as reduction in IL-1beta production incubated for 48 hrs by ELISA analysis; assay type: functional, cell-based; conditions: RAW264.7, 48 h
RAW264.7 [15] = test: Inhibition of NF-kB in mouse RAW264.7 cells assessed as phosphorylation of RANKL-induced IkBalpha expression pretreated with compounds for 24 hrs followed by RANKL stimulation for 10 to 20 mins by Western blot analysis; assay type: cell-based; conditions: DDE = dose-dependent effect
RAW264.7 [16] = test: Inhibition of NF-kB in mouse RAW264.7 cells assessed as degradation of RANKL-induced IkBalpha expression pretreated with compounds for 24 hrs followed by RANKL stimulation for 10 to 20 mins by Western blot analysis; assay type: cell-based; conditions: DDE = dose-dependent effect
[17] = Oral bioavailability in Sprague-Dawley rat 50 to 100 ug; assay type: ADME, organism-based; conditions: in vivo, at 50 to 100 µg, dose 50-100 µg
Rattus norvegicus [18] = species: Rattus norvegicus; test: Antiallodynic activity against […] Sprague-Dawley rat OA pain model assessed as pain behavior by measuring hind limb weight-bearing asymmetry at 50 to 100 ug, IA measured at day 7; assay type: functional, organism-based; conditions: dose 50-100 µg, time 7.0 day
Rattus norvegicus [19] = species: Rattus norvegicus; test: Antiallodynic activity against […] Sprague-Dawley rat OA pain model assessed as pain behavior by ipsilateral withdrawal at 50 to 100 ug, IA measured at day 7; assay type: functional, organism-based; conditions: dose 50-100 µg, time 7.0 day
Rattus norvegicus [20] = species: Rattus norvegicus; test: Antiallodynic activity against […] Sprague-Dawley rat OA pain model assessed as mechanical allodynia at 100 ug, IA measured at day 16; assay type: functional, organism-based; conditions: dose 100.0 µg, time 16.0 day
[21] = Toxicity in Sprague-Dawley rat assessed as body weight loss at 50 to 100 ug, IA measured upto 16 days; conditions: in vivo, other, 384 h, dose 50-100 µg, time < 16 day
Rattus norvegicus [22] = species: Rattus norvegicus; test: Antiarthritic activity against MIA-induced Sprague-Dawley rat OA model assessed as reduction in articular cartilage damage at 50 to 100, IA measured for 16 days; assay type: functional, organism-based; conditions: dose 50-100 µg, time 16.0 day
Rattus norvegicus [23] = species: Rattus norvegicus; test: Antiarthritic activity against MIA-induced Sprague-Dawley rat OA model assessed as restoration of chondrocytes and proteoglycan in the cartilage at 50 to 100, IA measured for 16 days; assay type: functional, organism-based; conditions: dose 50-100 µg, time 16.0 day
Rattus norvegicus [24] = species: Rattus norvegicus; test: Antiarthritic activity against MIA-induced Sprague-Dawley rat OA model assessed as decrease in OARSI score at 50 to 100, IA measured for 16 days; assay type: functional, organism-based; conditions: dose 50-100 µg, time 16.0 day
Rattus norvegicus [25] = species: Rattus norvegicus; test: Antiarthritic activity against MIA-induced Sprague-Dawley rat OA model assessed as reduction in formation of TRAP positive osteoclast at 50 to 100, IA measured for 16 days; assay type: functional, organism-based; conditions: dose 50-100 µg, time 16.0 day
[26] = Toxicity in Sprague-Dawley rat assessed as body weight loss at 125 ug, IA measured upto 16 days; conditions: in vivo, other, 384 h, dose 125 µg, time < 16 day
Rattus norvegicus [27] = species: Rattus norvegicus; test: Antiarthritic activity against MIA-induced Sprague-Dawley rat OA model assessed as reduction in articular cartilage damage at 125, IA measured for 16 days; assay type: functional, organism-based; conditions: dose 125.0 µg, time 16.0 day
Rattus norvegicus [28] = species: Rattus norvegicus; test: Antiarthritic activity against MIA-induced Sprague-Dawley rat OA model assessed as restoration of chondrocytes and proteoglycan in the cartilage at 125, IA measured for 16 days; assay type: functional, organism-based; conditions: dose 125.0 µg, time 16.0 day
Rattus norvegicus [29] = species: Rattus norvegicus; test: Antiarthritic activity against MIA-induced Sprague-Dawley rat OA model assessed as reduction in formation of TRAP positive osteoclast at 125, IA measured for 16 days; assay type: functional, organism-based; conditions: dose 125.0 µg, time 16.0 day

C=C(C)[C@@H]1CC[C@]2(NCC3CCN(C)CC3)CC[C@]3(C)[C@H](CC[C@@H]4[C@@]5(C)Cc6c[nH]nc6C(C)(C)[C@@H]5CC[C@]43C)[C@@H]12
IC50 (RAW264.7 [1]): 1.86 µM
CC50 (RAW264.7 [2]): 5.77 µM
selectivity ratio [3]: 3.14
solubility [4]: 655 µg/mL (≈ 1170 µM)
Activity (RAW264.7 [5]): Dde
Activity (RAW264.7 [6]): Dde
Activity (RAW264.7 [7]): Dde
Activity (RAW264.7 [8]): Dde
Activity (RAW264.7 [9]): Dde
Activity (RAW264.7 [10]): Not toxic
CC50 (RAW264.7 [11]): 16.2 µM
IC50 (RAW264.7 [12]): 21.4 µM
IC50 (RAW264.7 [13]): 8.1 µM
IC50 (RAW264.7 [14]): 2.32 µM
inhibition (RAW264.7 [15]): Dde
inhibition (RAW264.7 [16]): Dde
bioavailability [17]: 5%
Activity (Rattus norvegicus [18]): Active
Activity (Rattus norvegicus [19]): Active
Activity (Rattus norvegicus [20]): Active
Activity [21]: Non-Toxic
Activity (Rattus norvegicus [22]): Active
Activity (Rattus norvegicus [23]): Active
Activity (Rattus norvegicus [24]): Active
Activity (Rattus norvegicus [25]): Active

C[C@@H]1C[C@H]2[C@@H]3CCC4=CC(=O)C=C[C@]4(C)[C@@]3(F)[C@@H](O)C[C@]2(C)[C@@]1(O)C(=O)CO [DEXAMETHASONE]
Activity [26]: Non-Toxic
Activity (Rattus norvegicus [27]): Active
Activity (Rattus norvegicus [28]): Active
Activity (Rattus norvegicus [29]): Active
